Measurements published in PMC11947183 (Communications Biology, 2025).

Tests used:
[1] = test system: MjavOBP1; type: binding, Manis javanica; settings: for Kd: read-out: K d (competitive binding), pH 7.4
[2] = target: MjavOBP2; design: species or system Manis javanica; settings: read-out: K d (competitive binding); pH 7.4
[3] = test system: MjavOBP3; design: species or system Manis javanica; settings: read-out: IC50 (competitive binding); pH 7.4

For CC(C)=CCCC(C)=CC=O (mixture of isomers) [citral, Citral], the “binding to MjavOBP1 (in words)” value [1] was “bound weakly”.
CCCCCCCCCC(C)=O [2-undecanone, 2-Undecanone] was tested, and the Kd [1] was 56.6 ± 4.2 µM and the Kd [2] was 54.5 ± 10.8 µM.
For O=C(O)CCc1ccccc1 [3-phenylpropionic acid, 3-Phenylpropionic acid], the “binding to MjavOBP1 (in words)” value [1] was “bound weakly”.
Molecule CCCCCCCCC(=O)CC [3-undecanone, 3-Undecanone] has an IC50 [3] of over 2.23 µM.
With CCCCCC=O [hexanal, Hexanal] the IC50 [3] was over 2.23 µM.
Cc1c[nH]c2ccccc12 [skatole, 3-methylindole] gave a Kd [2] of 40.8 ± 8.93 µM.
C=CC(=C)CC/C=C(\C)CCC=C(C)C [β-farnesene] was tested, and the IC50 [3] was over 2.23 µM.
CCCCCCCC1CCCC(=O)O1 (stereo not drawn) [δ-dodecalactone, δ-Dodecalactone] gave a Kd [1] of 38.7 ± 2.04 µM.
